From patent US4289781A, “Anti-psychotic phthalimidine derivatives” (priority 1979, dated 1981)

Assays:
[1] = tested on: DA receptors in the brain; assay: Block of apomorphine induced stereotypies in rats (0-3 scale scoring); format: in vivo, Male Sprague-Dawley rats; conditions: i.p., 60 min prior to apomorphine hydrochloride 1 mg/kg s.c.; dose reducing strength of stereotypies by 50% over 60 min
Source text: There are several techniques available to study DA receptor blockade in the brain. One method is based on the ability of anti-psychotics to block the behavioural effects induced by the DA agonist apomorphine. Apomorphine produces a characteristic syndrome in rats and other species consisting of repetitive movements (stereotypies) and hyperactivity which appear to be due to activation of postsynaptic DA receptors in the brain (J Pharm. Pharmacol. 19, 627, 1967; J Neurol. Transm. 40, 97-113, 1977). The stereotypies (chewing, licking, biting) appear mainly to reflect action on DA receptors of the neostriatal system ([…]. Res., 11, 1, 1974) whereas the increased locomotion (hyperactivity) mainly appears to be due to activation of DA receptors in mesolimbic structures (nucleus olfactorium, nucleus accumbens), (J Pharm. Pharmacol. 25, 1003, 1973). Male Sprague-Dawley rats weighing 225-275 g were used. […] The compounds were injected 60 min prior to apomorphine hydrochloride (1 mg/kg) which was injected subcutaneously into the neck. […] Furthermore, apomorphine given s.c. also produced a very consistent hyperactivity. Directly after injection, the animals were placed in the cages, one in each cage. Scoring of the stereotypies were performed by two separate methods. The first scoring system was a modified version of the system introduced by Costall and Naylor (1973). The strength of the stereotypy was scored on a 0-3 scale as follows: |______________________________________ |Score Description of stereotyped behaviour. |______________________________________ |0 No change in behaviour compared to saline controls | No sedation. |1 Discontinuous sniffing. |2 Continuous sniffing. |3 Continuous sniffing. Chewing, biting and licking. |______________________________________ In the second system the number of animals displaying hyperactivity caused by apomorphine were scored. Each group consisted of 6-8 animals. Saline controls were always run simultaneously. […] The ED50 's were calculated from log dose-response curves by the method of least squares from 4-6 dose levels with 6-8 animals per dose level.

[2] = tested on: DA receptors in the brain; assay: Block of apomorphine induced hyperactivity in rats (number of animals displaying hyperactivity); format: in vivo, Male Sprague-Dawley rats; conditions: i.p., 60 min prior to apomorphine hydrochloride 1 mg/kg s.c.; dose reducing number of animals showing hyperactivity by 50% over 60 min
Source text: There are several techniques available to study DA receptor blockade in the brain. One method is based on the ability of anti-psychotics to block the behavioural effects induced by the DA agonist apomorphine. Apomorphine produces a characteristic syndrome in rats and other species consisting of repetitive movements (stereotypies) and hyperactivity which appear to be due to activation of postsynaptic DA receptors in the brain (J Pharm. Pharmacol. 19, 627, 1967; J Neurol. Transm. 40, 97-113, 1977). The stereotypies (chewing, licking, biting) appear mainly to reflect action on DA receptors of the neostriatal system (J Phychiat. Res., 11, 1, 1974) whereas the increased locomotion (hyperactivity) mainly appears to be due to activation of DA receptors in mesolimbic structures (nucleus olfactorium, nucleus accumbens), (J Pharm. Pharmacol. 25, 1003, 1973).
Male Sprague-Dawley rats weighing 225-275 g were used. […] The compounds were injected 60 min prior to apomorphine hydrochloride (1 mg/kg) which was injected subcutaneously into the neck.
Directly after injection, the animals were placed in the cages, one in each cage. Scoring of the stereotypies were performed by two separate methods. The first scoring system was a modified version of the system introduced by Costall and Naylor (1973). The strength of the stereotypy was scored on a 0-3 scale as follows:
In the second system the number of animals displaying hyperactivity caused by apomorphine were scored. Each group consisted of 6-8 animals. Saline controls were always run simultaneously. ED50 's are in the first scoring system (0-3 scale), the doses which reduce the strength of the stereotypies by 50% over the observation period of 60 min. ED50 's of the second scoring system are the doses which reduce the number of animals showing hyperactivity by 50% over the observation period of 60 min. The ED50 's were calculated from log dose-response curves by the method of least squares from 4-6 dose levels with 6-8 animals per dose level.

[3] = experimental animals; cited from earlier work
[4] = in vivo; cited from earlier work

| Structure (SMILES) | Stereotypies ED50 [1] [µmol/kg] | Hyperactivity ED50 [2] [µmol/kg] | catalepsy [3] | extrapyramidal side effects [4] |
| --- | --- | --- | --- | --- |
| O=C1c2ccc(F)cc2CN1C1CCN(Cc2ccccc2)CC1 [Example 1, 2-(4-N-benzylpiperidyl)-5-fluorophthalimidine] | 22.0 | 4.0 |  |  |
| O=C1c2ccc(Br)cc2CN1C1CCN(Cc2ccccc2)CC1 [Example 2, 2-(4-N-benzylpiperidyl)-5-bromo phthalimidine] | 17.5 | 14 |  |  |
| O=C1c2ccc(Cl)cc2CN1C1CCN(Cc2ccccc2)CC1 [Example 3, 2-(4-N-benzylpiperidyl)-5-chloro phthalimidine] | 16.0 | 2.0 |  |  |
| COc1ccc(CN2CCC(N3Cc4cc(Cl)ccc4C3=O)CC2)cc1 [Example 7, 5-chloro-2-[4-N-(4-methoxybenzyl)piperidyl]-phthalimidine] | 9.5 | 2.2 |  |  |
| O=C1c2ccc(Br)cc2CN1C1CCN(Cc2ccc(Cl)cc2)CC1 [Example 11, 5-bromo-2-[4-N-(4-chlorobenzyl)-piperidyl]-phthalimidine] | 11 | 3.4 |  |  |
| Cc1ccc(CN2CCC(N3Cc4cc(Br)ccc4C3=O)CC2)cc1 [Example 14] | 6.5 | 1.7 |  |  |
| O=C1c2ccc(Cl)cc2CN1C1CCN(Cc2ccc(Cl)cc2)CC1 [Example 15, 5-chloro-2-[4-N-(4-chlorobenzyl)piperidyl)-phthalimidine] | 14 | 3.5 |  |  |
| Cc1ccc(CN2CCC(N3Cc4cc(Cl)ccc4C3=O)CC2)cc1 [Example 16, 5-chloro-2-[4-N-(4-methylbenzyl)piperidyl]-phthalimidine] | 9 | 0.9 |  |  |
| CCN1CCCC1CNC(=O)c1cc(S(N)(=O)=O)ccc1OC (stereo not shown) [Sulpiride] |  | 45 | weak catalepsy | weak extrapyramidal side effects |
